Results: patent US20240043450A1, “NEW COMPOUND” (JANSSEN PHARMACEUTICA NV, priority 2020, published 2024)

Legend:
NLRP3 = molecular target: T1, NLRP3 (Homo sapiens, UniProt Q96P20); experiment: PBMC assay: IL-1β levels in supernatant of LPS-stimulated human PBMCs (MSD); format: cell-based; conditions: 30 min compound pre-incubation, 100 ng/ml LPS for 6 hrs, IL-1β in supernatant, read-out: IL-1B IC50
T1 construct: human peripheral blood mononuclear cells (PBMCs) were isolated from blood; endogenous in cells; host or cells: primary human PBMCs from healthy donors
Method: The activity of a compound according to the present invention can be assessed by in vitro methods.
Peripheral venous blood was collected from healthy individuals and human peripheral blood mononuclear cells (PBMCs) were isolated from blood by Ficoll-Histopaque (Sigma-Aldrich, A0561) density gradient centrifugation. After isolation, PBMCs were stored in liquid nitrogen for later use. Upon thawing, PBMC cell viability was determined in growth medium (RPMI media supplemented with 10% fetal bovine serum, 1% Pen-Strep and 1% L-glutamine). […] PBMCs were added at a density of 7.5×10^4 cells per well and incubated for 30 min in a 5% CO2 incubator at 37° C. LPS stimulation was performed by addition of 100 ng/ml LPS (final concentration, Invivogen, tlrl-smlps) for 6 hrs followed by collection of cellular supernatant and the analysis of IL-1β […] and TNF cytokines levels […] via MSD technology according to manufacturers' guidelines (MSD, K15A0H).

TNF = experiment: PBMC assay: TNF cytokine levels in supernatant of LPS-stimulated human PBMCs (MSD); format: cell-based; conditions: Homo sapiens, PBMC, 30 min compound pre-incubation, 100 ng/ml LPS for 6 hrs
Method: Peripheral venous blood was collected from healthy individuals and human peripheral blood mononuclear cells (PBMCs) were isolated from blood by Ficoll-Histopaque (Sigma-Aldrich, A0561) density gradient centrifugation. After isolation, PBMCs were stored in liquid nitrogen for later use. Upon thawing, PBMC cell viability was determined in growth medium (RPMI media supplemented with 10% fetal bovine serum, 1% Pen-Strep and 1% L-glutamine). Compounds were spotted in a 1:3 serial dilution in DMSO and diluted to the final concentration in 30 μl medium in 96 well plates (Falcon, 353072). PBMCs were added at a density of 7.5×10^4 cells per well and incubated for 30 min in a 5% CO2 incubator at 37° C. LPS stimulation was performed by addition of 100 ng/ml LPS (final concentration, Invivogen, tlrl-smlps) for 6 hrs followed by collection of cellular supernatant and the analysis of IL-1β […] and TNF cytokines levels […] via MSD technology according to manufacturers' guidelines (MSD, K15A0H).
The IC50 values (for IL-1β) and EC50 values (TNF) were obtained on compounds of the invention/examples, and are depicted in the following table: […]

T1 sequence (Q96P20 whole entry): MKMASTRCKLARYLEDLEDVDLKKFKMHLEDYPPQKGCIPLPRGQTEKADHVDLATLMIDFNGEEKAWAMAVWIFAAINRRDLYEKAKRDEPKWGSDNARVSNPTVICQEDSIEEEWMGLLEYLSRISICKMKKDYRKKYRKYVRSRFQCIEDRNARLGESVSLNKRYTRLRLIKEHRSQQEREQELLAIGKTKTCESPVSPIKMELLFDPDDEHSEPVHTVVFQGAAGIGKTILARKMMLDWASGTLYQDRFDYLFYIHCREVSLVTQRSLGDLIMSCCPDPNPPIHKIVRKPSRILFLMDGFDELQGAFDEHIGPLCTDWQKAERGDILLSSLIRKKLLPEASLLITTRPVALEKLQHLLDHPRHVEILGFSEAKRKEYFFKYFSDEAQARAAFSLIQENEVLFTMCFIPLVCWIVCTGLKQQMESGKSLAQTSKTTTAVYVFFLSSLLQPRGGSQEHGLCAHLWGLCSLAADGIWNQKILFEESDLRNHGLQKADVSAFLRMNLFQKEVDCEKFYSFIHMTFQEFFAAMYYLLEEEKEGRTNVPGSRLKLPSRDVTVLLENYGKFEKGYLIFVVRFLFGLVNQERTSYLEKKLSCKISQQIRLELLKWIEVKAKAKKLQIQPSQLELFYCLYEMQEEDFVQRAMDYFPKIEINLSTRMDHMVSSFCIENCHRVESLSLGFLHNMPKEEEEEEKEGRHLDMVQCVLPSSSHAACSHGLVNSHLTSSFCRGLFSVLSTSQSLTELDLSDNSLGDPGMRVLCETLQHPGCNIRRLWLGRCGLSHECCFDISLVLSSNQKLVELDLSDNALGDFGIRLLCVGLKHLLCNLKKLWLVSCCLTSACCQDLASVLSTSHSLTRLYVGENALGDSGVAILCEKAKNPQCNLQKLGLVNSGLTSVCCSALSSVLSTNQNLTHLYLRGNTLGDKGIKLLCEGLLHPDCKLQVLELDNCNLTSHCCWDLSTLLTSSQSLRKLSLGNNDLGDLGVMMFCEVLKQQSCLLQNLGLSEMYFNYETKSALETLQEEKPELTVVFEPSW

| Structure (SMILES) | IC50 (NLRP3) | EC50 (TNF) | melting point |
| --- | --- | --- | --- |
| Cc1nnc2n1C[C@H](NC(=O)Cn1nc(C(C)C)c3nc(C4CC4)sc3c1=O)CC2 (single isomer, unassigned) [F-32] | 6600 nM | > 20 µM |  |
| Cc1nnc2n1C[C@@H](NC(=O)Cn1nc(C(C)C)c3nc(C4CC4)sc3c1=O)CC2 (single isomer, unassigned) [F-33] | 300 nM | > 20 µM |  |
| CC(C)c1nn(CC(=O)Nc2ccncn2)c(=O)c2sc(C3CC3)nc12 [F-1, 2-(2-cyclopropyl-4-isopropyl-7-oxo-thiazolo[4,5-d]pyridazin-6-yl)-N-pyrimidin-4-yl-acetamide] | 105 nM | 19.7 µM |  |
| CC(C)c1nc2c(C(C)C)nn(CC(=O)Nc3ccncn3)c(=O)c2s1 [F-2] | 105 nM | 5.59 µM |  |
| CC(C)c1nc2c(C(C)C)nn(CC(=O)Nc3ccnnc3)c(=O)c2s1 [F-3] | 181 nM | 7.18 µM |  |
| CC(C)c1nc2c(C(C)C)nn(CC(=O)Nc3ccc4nncn4c3)c(=O)c2s1 [F-4] | 50 nM | 11.5 µM |  |
| CC(C)c1nc2c(C(C)C)nn(CC(=O)N[C@H]3C[C@@](C)(O)C3)c(=O)c2s1 [F-5] | 156 nM | > 20 µM |  |
| CC(C)c1nc2c(N(C)C)nn(CC(=O)N[C@H]3C[C@@](C)(O)C3)c(=O)c2s1 [F-6] | 258 nM | > 20 µM |  |
| CC(C)c1nc2c(N(C)C)nn(CC(=O)Nc3ccc4nncn4c3)c(=O)c2s1 [F-7] | 169 nM | > 20 µM |  |
| CCc1nc2c(C(C)C)nn(CC(=O)Nc3ccncn3)c(=O)c2s1 [F-8, 2-(2-ethyl-4-isopropyl-7-oxo-thiazolo[4,5-d]pyridazin-6-yl)-N-pyrimidin-4-yl-acetamide] | 181 nM | 9.2 µM | 186 °C |
| CCc1nc2c(C(C)C)nn(CC(=O)Nc3ccc4nncn4c3)c(=O)c2s1 [F-9] | 95 nM | 18 µM | 284.6 °C |
| CCc1nc2c(C(C)C)nn(CC(=O)Nc3ccnnc3)c(=O)c2s1 [F-10] | 274 nM | 18.6 µM | 186.5 °C |
| CCc1nc2c(C(C)C)nn(CC(=O)N[C@H]3C[C@@](C)(O)C3)c(=O)c2s1 [F-11] | 351 nM | 19.4 µM | 159.2 °C |
| CC(C)c1nn(CC(=O)Nc2ccc3nncn3c2)c(=O)c2sc(C3CC3)nc12 [F-12] | 23 nM | 4.99 µM |  |
| CC(C)c1nn(CC(=O)Nc2ccnnc2)c(=O)c2sc(C3CC3)nc12 [F-13] | 100 nM | 6.59 µM | 195.2 °C |
| CC(C)c1nn(CC(=O)N[C@H]2C[C@@](C)(O)C2)c(=O)c2sc(C3CC3)nc12 [F-14] | 55 nM | 18.2 µM | 190.5 °C |
| CC(C)c1nn(CC(=O)Nc2ccc3c(c2)[nH]c(=O)n3C)c(=O)c2sc(C3CC3)nc12 [F-15] | 26 nM | 7.9 µM |  |
| CC(C)c1nn(CC(=O)Nc2ccc(=O)n(C)n2)c(=O)c2sc(C3CC3)nc12 [F-16] | 81 nM |  | 233.3 °C |
| CC(C)c1nn(CC(=O)Nc2ccn3cnnc3c2)c(=O)c2sc(C3CC3)nc12 [F-17] |  | 12.5 µM | 206 °C |
| CCNc1nc2c(C(C)C)nn(CC(=O)N[C@H]3C[C@@](C)(O)C3)c(=O)c2s1 [F-18] | 128 nM | > 20 µM | 216.6 °C |
| CC(C)c1nn(CC(=O)Nc2ccc3nncn3c2)c(=O)c2sc(C3CC3(F)F)nc12 (stereo not drawn) [F-20] | 100 nM | > 20 µM |  |
| CC(C)c1nn(CC(=O)N[C@H]2C[C@@](C)(O)C2)c(=O)c2sc(C(F)(F)F)nc12 [F-21] | 469 nM | > 20 µM | 181.4 °C |
| CC(C)c1nn(CC(=O)Nc2ccc3nncn3c2)c(=O)c2sc(C(F)(F)F)nc12 [F-22] | 332 nM | > 20 µM | 261.8 °C |
| CC(C)c1nn(CC(=O)Nc2ccc3nncn3c2)c(=O)c2sc(C(C)(F)F)nc12 [F-23] | 89 nM | > 20 µM |  |
